Entries after “also recorded” stand apart in the source; their conditions may differ.
Key:
[1] = system: Jurkat's cells (cells lacking HLA-DR10); assay: 3-D confocal microscopy, Jurkat's cells; type: cell-based, human; details: biotinylated reagent, 1 hr
Protocol: (§1) SHAL binding and internalization by Raji and Jurkat's cells was assessed using the method described previously by O'Donnell et al. (O'Donnell et al. (1998) Prostate 37:91-97). Experiments were conducted comparing the binding of (DvLPBaPPP)2LLDo (the parent SHAL), its hexa-arginine analog (DvLPBaPPP)2LArg6AcLLDo, and chimeric Lym-1 (chLym-1) to Raji cells. All steps were performed at 20° C., unless indicated.
(§2) Four million Raji cells (>92% viability) in log phase growth were pelleted at 300×g, washed, and blocked for 30 min in 1 ml of 1% fraction V BSA in PBS, with constant rotation. Cells were then incubated 1 hr, at 1 million per 250 μl, with either 1% BSA in PBS or a biotinylated primary reagent: 10 nM chLym-1, 10 μM parent SHAL, or 10 μM hexa-arginine SHAL. After four washes (two in 1% BSA in PBS, two in PBS), 50 μl of the cell suspensions was applied to freshly poly-L-Lysine coated slides, and cells were allowed to adhere for 10 min in a humid chamber. Fixation and permeabilization were performed at −20° C. by using a 4 min exposure to methanol. Jurkat's cells were treated in the same manner as a control.
Slides were then washed twice in PBS and blocked in 10% fetaplex serum (Gemini Bioproducts, West Sacramento, Calif.) in PBS for 15 min and washed once in PBS. […]

[2] = system: Raji cells; assay: 3-D confocal microscopy, Raji cells; type: cell-based, human; details: biotinylated reagent, 1 hr, 10 μM SHAL or 10 nM chLym-1
Protocol: as §1, §2
Slides were then washed twice in PBS and blocked in 10% fetaplex serum (Gemini Bioproducts, West Sacramento, Calif.) in PBS for 15 min and washed once in PBS. The detection reagent, Streptavidin AlexaFluor 610 (Invitrogen, Carlsbad, Calif.) was diluted 1/500 in diluent, 100 μl was applied; a parafilm cover slip was layered over the solution to prevent evaporation. The slides were incubated in a humid chamber for 30 min., washed 5 times for 5 min each in PBS, and rinsed briefly in double distilled H2O. After the slides dried, cover slips were mounted with ProlongGold with 4′,6-diamidino-2-phenylindole (DAPI, Invitrogen, Carlsbad, Calif.). The slides were viewed with an Olympus FV1000 laser scanning confocal microscope and data were collected as Z-scans at 160×, with focal sections being taken 1 μm apart through the cell.

[3] = Stability in human plasma by cellulose acetate electrophoresis; type: in vitro ADME; details: human plasma at 37° C. for 24 hrs; one preliminary CAE experiment
Excerpt: Two forms of the free amine SHAL, (DvLPBaPPP)2LLA, and the hexa-arginine analog, (DvLPBaPPP)2LArg6AcLLA, were synthesized in multi-milligram amounts and purified by high performance liquid chromatography (HPLC). A biotin was attached to the ε-amino group of the terminal amine (A) on both (DvLPBaPPP)2LLA and (DvLPBaPPP)2LArg6AcLLA to produce biotinylated forms for use in cell and protein binding experiments. 1,4,7,10-tetraazacyclododecane-1,4,7,10-tetraacetic acid (DOTA) was attached to both (DvLPBaPPP)2LLA and (DvLPBaPPP)2LArg6AcLLA at the same site to enable the SHALs to be labeled with ^111In. The DOTA SHAL (DvLPBaPPP)2LLDo (FIG. 25A) and the hexa-arginine SHAL analog (DvLPBaPPP)2LArg6AcLLDo (FIG. 25B) were labeled with ^111In at high efficiency (>90%) with specific activities ranging from 70-85 μCi/μg SHAL. […] D-isomers of arginine incorporated during the synthesis of the hexa-arginine sequence in (DvLPBaPPP)2LArg6AcLLDo were used to minimize the proteolytic susceptibility of the peptide.

[4] = General safety study in healthy mice; type: in vivo; details: 4 weeks; for adverse effects / toxicity: up to 2000 times the efficacy dose i.p.
Protocol: Each of 3 groups of 7 healthy Balb/c mice were given PBS, 20 or 200 μg of DOTA-chelated SHAL i.p., that is, 200 or 2,000 times the SHAL efficacy dose. Immediately prior to intervention, the mice were observed, weighed and blood counts (red, white and platelets) obtained, then the mice were observed daily, weighed 3 times each week and blood counts measured weekly for 4 weeks after intervention.

[5] = system: Raji xenografts; assay: Electron microscopy of Raji xenografts after SHAL treatment; type: in vivo, mice; details: after 100 ng of biotinylated SHAL
Protocol: Raji xenografts (53-132 mm^3) were harvested for EM from mice, untreated (control) and 2, 4 or 24 h after 100 ng of biotinylated SHAL.

Structure (SMILES) | SHAL uptake in Jurkat's cells [1] | SHAL binding, uptake and localization in Raji cells [2] | SHAL binding, uptake and localization in Raji cells ([2]; listed as hexa-arginine SHAL) | SHAL binding, uptake and localization in Raji cells ([2]; listed as hexa-arginine SHAL analog) | SHAL binding, uptake and localization in Raji cells ([2]; listed as hexa-arginine analog) | degradation in human plasma [3] | body weight ([4]; 20 or 200 μg DOTA-chelated SHAL i.p. (200 or 2,000 times efficacy dose)) | blood counts ([4]; 20 or 200 μg DOTA-chelated SHAL i.p.) | adverse effects / toxicity [4] | adverse effects / toxicity ([4]; listed as SHAL) | electron microscopy findings in xenograft cells [5] | electron microscopy findings in xenograft cells ([5]; listed as SHAL)
CC(=O)NC(CCCNC(=N)N)C(=O)NC(CCCNC(=N)N)C(=O)NC(CCCNC(=N)N)C(=O)NC(CCCNC(=N)N)C(=O)NC(CCCNC(=N)N)C(=O)NC(CCCNC(=N)N)C(=O)NCCCCC(NC(=O)C(CCCCNC(=O)COCCOCCNC(=O)COCCOCCNC(=O)COCCOCCNC(=O)C(CCCCNC(=O)COCCOCCNC(=O)c1ccc(NC(=O)C(CCCNC(=N)N)NC(=O)c2ccccc2)cc1)NC(=O)C(NS(=O)(=O)c1ccc(N=Nc2ccc(N(C)C)cc2)cc1)C(C)C)NC(=O)COCCOCCNC(=O)COCCOCCNC(=O)COCCOCCNC(=O)C(CCCCNC(=O)COCCOCCNC(=O)c1ccc(NC(=O)C(CCCNC(=N)N)NC(=O)c2ccccc2)cc1)NC(=O)C(NS(=O)(=O)c1ccc(N=Nc2ccc(N(C)C)cc2)cc1)C(C)C)C(=O)NC(CCCCNC(=O)CN1CCN(CC(=O)O)CCN(CC(=O)O)CCN(CC(=O)O)CC1)C(=O)O (stereo not drawn) [(DvLPBaPPP)2LArg6AcLLDo] | minimal SHAL uptake | internalized | localized in the nucleus; also recorded: significantly more; also recorded: associated with the nucleus | associated with the nucleus | marked cytoplasmic binding but also intranuclear targeting; also recorded: taken up and internalized | no evidence of degradation |  |  |  |  |  | 
CC(C)C(NS(=O)(=O)c1ccc(N=Nc2ccc(N(C)C)cc2)cc1)C(=O)NCCOCCOCC(=O)NC(CCCCNC(=O)C(CCCCNC(=O)CC(=O)Nc1ccccc1Oc1ncc(C(F)(F)F)cc1Cl)NC(=O)COCCOCCNC(=O)c1ccc(N2CCN(Cc3ccc(Cl)cc3)CC2)c([N+](=O)[O-])c1)C(=O)NCCOCCOCC(=O)NC(CCCCNC(=O)CN1CCN(CC(=O)O)CCN(CC(=O)O)CCN(CC(=O)O)CC1)C(=O)O (stereo not drawn) [tridentate SHAL] |  |  |  |  |  |  | gained weight | stable blood counts | no evidence for toxicity; also recorded: did not exhibit signs of adverse events | no adverse effects | highly condensed nuclear chromatin and fragmented organelles | condensed and fragmented chromatin and loss of cytoplasmic structures consistent with autophagic death
